Data reported in paper PMC6514909, “Synthesis of New Derivatives of Benzofuran as Potential Anticancer Agents” (Molecules, 2019).

How the values were obtained:
[1] = system: plasmid DNA (pcDNA3.1 HisC); assay: Digestion of plasmid DNA with BamHI restriction nuclease; format: biochemical; details: 100 µM, overnight 37 °C, then BamHI 3 h; agarose gel
Text: We hypothesized that a possible explanation of observed cytotoxicity might be due to an interaction of test benzofurans with genomic DNA (e.g., by intercalation). To verify this hypothesis, we investigated whether the test benzofurans have any effect on digestion of a plasmid DNA (pcDNA3.1 HisC) with endonuclease BamH1. pcDNA3.1 HisC contains a unique BamH1 restriction site which allows for plasmid linearization. Plasmid DNA exists in linear, superhelical, and circular forms that differ in electrophoretic mobility (Figure 6 lane 1). Plasmid DNA was converted to a linear form upon digestion with BamH1 (lane 2). […] In the presence of test compounds, pcDNA3.1 HisC was partially digested with Bam H1 restriction enzyme (Figure 6 lanes 4–7). Most of the plasmid DNA was converted to a linear form, however there is a circular form still present.
0.5 μg of plasmid DNA (pcDNAHisC, total length 5.5 kbp) containing a unique BamHI restriction site was dissolved in a 1× BamHI reaction buffer and then incubated overnight at 37 °C with the test compounds or daunorubicin, a strong intercalating agent, which was used as a positive control. The concentration of the test compounds and daunorubicin samples was 100 µM. In the next step, the reaction mixtures were digested with BamHI restriction endonuclease (2 U/μL) for 3 h at 37 °C. The total reaction volume was 10 μL. Products of the reaction were subjected to the 1% agarose gel electrophoresis in TBE buffer. The gel was stained with ethidium bromide and DNA fragments were visualized under a UV lamp (GBox, Syngene, Cambridge, UK).
Figure 6 Digestion of pcDNA3.1HisC (total length 5.5kbp) with BamH1 endonuclease. M—marker DNA; 1—not digested plasmid DNA; 2—plasmid DNA digested with BamH1 (DNA present in linear form); 3—plasmid DNA + daunorubicin + BamH1; 4—plasmid DNA + 1c + BamH1; 5—plasmid DNA + 2d + BamH1; 6—plasmid DNA + 1e + BamH1; and, 7—plasmid DNA + 3d + BamH1.

[2] = system: Human umbilical vein endothelial cells (HUVEC); assay: MTT cytotoxicity assay, HUVEC; format: cell-based; details: for IC50: Homo sapiens, HUVEC, 48 h incubation with cells, MTT; for cytotoxicity against human normal endothelial cells: initial screening, 100 μM, 48 h
Protocol: (§1) Fourteen new benzofuran derivatives were tested for their cytotoxic properties in K562, MOLT-4 (leukemia, suspension cells), HeLa (cervix carcinoma, adherent cells), and normal endothelial cells (HUVEC). First, we measured the viability of cells after 48 h incubation with the given compound at the concentration of 100 μM. Next, for compounds that reduced cancer cells survival for more than 50%, we determined IC50 values. Cells that were exposed to 1% DMSO (a vehicle) served as the control with 100% survival. Cells treated with 1 µM staurosporine served as the internal control of the cytotoxicity experiments.
(§2) Human umbilical vein endothelial cells (Life Technologies, Waltham, MA, USA) were cultured (according to the manufacturer instructions) in Medium 200 supplemented with Low Serum Growth Supplement. 1 × 10^4 HUVEC cells were seeded on each well on a 96-well plate (Nunc). The HeLa (human cervix carcinoma) K562 and MOLT-4 (leukemia) cells were cultured in RPMI 1640 medium supplemented with antibiotics and 10% fetal calf serum (HeLa, K562) in a 5% CO2-95% air atmosphere. 7 × 10^3 HeLa, K562, or MOLT-4 cells were seeded on each well on 96-well plate (Nunc). 24 h later cells were treated with the test compounds and then incubated for an additional 48 hours. Stock solutions of test compounds were freshly prepared in DMSO (dimethylsulfoxide). The final concentrations of compounds that were tested in the cell cultures were: 2 × 10^−1, 1 ×10^−1, 5 × 10^−2, 1 × 10^−2, 1 × 10^−3 and 1 × 10^−4 mM. The concentration of DMSO in the cell culture medium was 1%.
(§3) The values of IC50 (the concentration of test compound that is required to reduce the cell survival fraction to 50% of the control) were calculated from dose-response curves and used as a measure of cellular sensitivity to a given treatment.
(§4) The MTT [3-(4,5-dimethylthiazol-2-yl)-2,5-diphenyltetrazolium bromide; Sigma, St. Louis, MO, USA] assay determined the cytotoxicity of all the compounds, as described previously. Briefly, after 24 h or 48 h of incubation with the drug, the cells were treated with the MTT reagent, and incubation was continued for 2 h. MTT-formazan crystals were dissolved in 20% SDS and 50% DMF at pH 4.7 and absorbance was read at 570 and 650 nm on an ELISA-PLATE READER (FLUOstar Omega, BMG LABTECH GmbH, Ortenberg, Germany). As a control (100% viability), cells that were grown in the presence of medium vehicle only with 1% DMSO were used.

[3] = system: HeLa (human cervix carcinoma) cells; assay: MTT cytotoxicity assay, HeLa; format: cell-based; details: for IC50: Homo sapiens, HeLa, 48 h incubation with cells, MTT; for reduction of viability of HeLa cells: initial screening, 100 μM, 48 h
Protocol: as §1, §2, §3, §4

K562 (leukemia) cells = assay: MTT cytotoxicity assay, K562; format: cell-based, human; details: for reduction of viability of K562 cells: initial screening, 100 μM, 48 h; for IC50: 48 h incubation with cells, MTT
Protocol: as §1, §2, §3, §4

cancer cell lines = assay: MTT cytotoxicity, cancer cell lines overall; format: cell-based, human; details: compared to lead compounds VIII-X
Protocol: as §1, §2, §3, §4

MOLT-4 (leukemia) cells = assay: MTT cytotoxicity assay, MOLT-4; format: cell-based, human; details: for IC50: Homo sapiens, MOLT-4, 48 h incubation with cells, MTT; for reduction of viability of MOLT-4 cells: initial screening, 100 μM, 48 h
Protocol: as §1, §2, §3, §4

[4] = system: caspase 3/7 in K562 cells; assay: Apo-ONE Homogeneous Caspase-3/7 Assay in K562 cells; format: cell-based, human; details: compound at 5 × IC50 (staurosporine 1 µM), 18 h, 1% DMSO normalized to 1.0
Protocol: We have measured the activity of caspases 3 and 7 (caspase 3/7), which are markers of programmed cell death. […] The activity of caspase 3/7 was measured using pro-fluorescent peptide substrate.
20 × 10^3 K562 cells were seeded on each well of 96-well plate in RPMI 1640 medium supplemented with 10% fetal calf serum and antibiotics. Cells were grown for 24 h at 37 °C and 5% CO2. The test compounds were dissolved in DMSO and added to the cell culture. The concentration of tested benzo[b]furans in cell culture was 5 × IC50.
Cells treated with 1% DMSO served as a negative control, while cells incubated with staurosporine (a strong inducer of apoptosis) were used as a positive control. Cells were exposed to test compounds for 18 h at 37 °C and 5% CO2. Subsequently, Apo-ONE® Homogeneous Caspase-3/7 Assay (Promega, Madison, WI, USA) measured the activity of caspase 3 and 7, according to the manufacturer’s instructions. Briefly, the cells were lysed and incubated for 1.5 h with profluorescent substrate for caspase 3 and 7. Next, fluorescence was read at an excitation wavelength of 485 nm and emission of 520 nm with FLUOStar Omega plate reader (BMG-Labtech, Ortenberg, Germany).
Figure 5 Activity of caspase 3 and 7 in K562 cells treated with the test benzofurans 1c, 1e, 2d, 3d, or staurosporine for 18 h. Apoptosis was determined by Apo-ONE® Homogeneous Caspase-3/7 Assay (Promega, Madison, WI, USA). Abbreviations: DMSO—K562 cells treated with 1% DMSO. The caspase activation level in cells exposed to 1% DMSO was normalized to 1.0. Mean values +/− SD are shown.

[5] = system: healthy endothelial cells (HUVEC); parameters: method as in PMID 25482722, PMID 30465514; details: previous studies; cited from earlier work
cancer cells = system: cancer cells; parameters: method as in PMID 25482722, PMID 30465514; details: previous studies; cited from earlier work
K562 leukemic cell line = system: K562 leukemic cell line; parameters: method as in PMID 25482722, PMID 30465514; details: previous studies; cited from earlier work
HeLa cancer cells = system: HeLa cancer cells; parameters: method as in PMID 25482722, PMID 30465514; details: previous studies; cited from earlier work
HL-60 leukemic cell line = system: HL-60 leukemic cell line; parameters: method as in PMID 25482722, PMID 30465514; details: previous studies; cited from earlier work

COC(=O)c1c(CBr)oc2cc(C(C)=O)c(O)cc12 [Compound 2d, Methyl 6-acetyl-2-(bromomethyl)-5-hydroxybenzofuran-3-carboxylate]
inhibition of digestion of plasmid DNA with BamH1 / interaction with DNA [1]: to some extent, interact with DNA | IC50 [2]: 30 µM | cytotoxicity against human normal endothelial cells [2]: cytotoxic | IC50 [3]: 35 µM | reduction of viability of HeLa cells [3]: more than 50% | reduction of viability of K562 cells (K562 (leukemia) cells): more than 50% | decrease of cytotoxicity against human cancer cells compared to the lead compounds VIII-X (cancer cell lines): 5–10 folds | IC50 (MOLT-4 (leukemia) cells): 35 µM | reduction of viability of MOLT-4 cells (MOLT-4 (leukemia) cells): more than 50% | increase in the activity of caspase 3/7 [4]: about two-fold

COC(=O)c1c(C)oc2cc(C(=O)C(Br)Br)c(OC)cc12 [X, methyl 6-(dibromoacetyl)-5-methoxy-2-methylbenzofuran-3-carboxylate]
toxicity towards endothelial cells (HUVEC) [5]: non-toxic | IC50 towards cancer cells (cancer cells): in a few µM range

COc1cc2c(CBr)c(C(C)=O)oc2c(C(C)=O)c1OC [VIII]
IC50 [5]: > 1000 µM | IC50 (K562 leukemic cell line): 5 µM | IC50 (HeLa cancer cells): > 1000 µM | IC50 (HL-60 leukemic cell line): 0.1 µM

COC(=O)c1oc2c(C(C)=O)c(OC)c(OC)cc2c1CBr [Compound 1c, Methyl 7-acetyl-3-(bromomethyl)-5,6-dimethoxybenzofuran-2-carboxylate]
inhibition of digestion of plasmid DNA with BamH1 / interaction with DNA [1]: to some extent, interact with DNA | IC50 [2]: 30 µM | cytotoxicity against human normal endothelial cells [2]: cytotoxic | IC50 [3]: 50 µM | reduction of viability of HeLa cells [3]: more than 50% | IC50 (K562 (leukemia) cells): 25 µM | IC50 (K562 (leukemia) cells; Homo sapiens, K562, 48 h): < 50 µM | reduction of viability of K562 cells (K562 (leukemia) cells): more than 50% | IC50 (MOLT-4 (leukemia) cells): 180 µM | reduction of viability of MOLT-4 cells (MOLT-4 (leukemia) cells): more than 50% | increase in the activity of caspase 3/7 [4]: about two-fold

COC(=O)c1c(C)oc2cc(C(=O)C(Br)Br)c(O)c(Br)c12 [IX]
toxicity towards endothelial cells (HUVEC) [5]: non-toxic | IC50 towards cancer cells (cancer cells): in a few µM range
